Columns and labels:
[1] = […] in Sprague-Dawley rat […] assessed as half life at 0.5 mg/kg,iv; format: ADME, organism-based
eIF-2-alpha kinase GCN2 [2] = biological target: T1, eIF-2-alpha kinase GCN2 (Homo sapiens, UniProt Q9P2K8); assay: Inhibition of GCN2 (unknown origin)
[3] = AUC (0-infinity) in Sprague-Dawley rat at 2 mg/kg,po; format: ADME, organism-based; parameters: time infinity, dose 2 mg/kg, route po; conditions: in vivo
[4] = Oral bioavailability in Sprague-Dawley rat at 2 mg/kg; format: ADME, organism-based; conditions: in vivo
eIF-2-alpha kinase GCN2 [5] = biological target: T1, eIF-2-alpha kinase GCN2; assay: Inhibition of GCN2 in human SK-OV-3 cells assessed as reduction in phosphorylation of eIF2alpha by cellular assay; format: cell-based

T1 sequence (Q9P2K8 whole entry): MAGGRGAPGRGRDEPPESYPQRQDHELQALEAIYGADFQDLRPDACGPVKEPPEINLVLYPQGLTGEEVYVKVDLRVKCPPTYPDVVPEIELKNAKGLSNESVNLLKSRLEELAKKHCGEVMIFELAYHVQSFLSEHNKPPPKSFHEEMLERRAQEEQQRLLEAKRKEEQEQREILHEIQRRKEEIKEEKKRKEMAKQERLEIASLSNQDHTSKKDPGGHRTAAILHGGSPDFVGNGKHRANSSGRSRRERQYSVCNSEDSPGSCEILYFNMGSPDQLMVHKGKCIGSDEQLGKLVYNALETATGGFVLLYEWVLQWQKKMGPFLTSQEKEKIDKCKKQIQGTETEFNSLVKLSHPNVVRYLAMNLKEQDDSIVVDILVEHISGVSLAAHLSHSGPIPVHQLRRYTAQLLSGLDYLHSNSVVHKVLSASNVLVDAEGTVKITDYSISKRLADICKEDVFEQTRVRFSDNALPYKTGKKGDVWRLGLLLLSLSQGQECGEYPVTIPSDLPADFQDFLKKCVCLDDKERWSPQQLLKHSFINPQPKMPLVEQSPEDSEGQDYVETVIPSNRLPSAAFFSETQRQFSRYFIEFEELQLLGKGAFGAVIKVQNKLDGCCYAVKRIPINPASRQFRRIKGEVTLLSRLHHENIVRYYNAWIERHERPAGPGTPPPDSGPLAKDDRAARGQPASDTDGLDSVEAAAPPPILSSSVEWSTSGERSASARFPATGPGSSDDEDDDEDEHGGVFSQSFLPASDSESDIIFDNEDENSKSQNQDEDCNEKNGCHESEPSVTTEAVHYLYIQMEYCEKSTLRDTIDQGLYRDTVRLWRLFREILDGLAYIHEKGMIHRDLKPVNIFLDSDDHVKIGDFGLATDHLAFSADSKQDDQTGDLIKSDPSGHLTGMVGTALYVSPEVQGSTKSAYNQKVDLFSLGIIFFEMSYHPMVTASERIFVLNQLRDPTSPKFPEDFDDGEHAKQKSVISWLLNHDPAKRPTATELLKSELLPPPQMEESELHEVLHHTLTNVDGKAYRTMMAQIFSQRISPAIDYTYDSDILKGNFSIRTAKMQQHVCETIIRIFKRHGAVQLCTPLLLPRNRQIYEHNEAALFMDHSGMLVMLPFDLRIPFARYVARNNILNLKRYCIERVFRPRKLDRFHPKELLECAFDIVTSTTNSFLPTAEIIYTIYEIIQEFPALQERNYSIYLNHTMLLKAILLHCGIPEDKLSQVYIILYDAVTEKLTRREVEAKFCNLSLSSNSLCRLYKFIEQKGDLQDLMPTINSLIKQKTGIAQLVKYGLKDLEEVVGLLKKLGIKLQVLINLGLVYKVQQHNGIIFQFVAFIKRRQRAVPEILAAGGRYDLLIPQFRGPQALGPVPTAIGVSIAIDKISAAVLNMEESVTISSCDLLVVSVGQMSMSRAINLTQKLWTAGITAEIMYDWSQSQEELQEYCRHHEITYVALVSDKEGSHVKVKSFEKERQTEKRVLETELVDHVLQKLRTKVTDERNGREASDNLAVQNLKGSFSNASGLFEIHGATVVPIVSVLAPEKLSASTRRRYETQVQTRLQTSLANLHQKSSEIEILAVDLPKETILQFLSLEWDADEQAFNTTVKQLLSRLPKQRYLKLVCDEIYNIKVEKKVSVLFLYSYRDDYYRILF

`CNC(=O)[C@]1(C)CC[C@@H](Nc2ncc3c(Br)nn(-c4ccc(-c5nnc(C)s5)c(CCO)c4)c3n2)C1` gave a half-life [1] of 47 min, an IC50 (eIF-2-alpha kinase GCN2 [2]) of 16 nM and an AUC(0-inf) [3] of 518 ng·h/mL. It also gave a bioavailability [4] of 15% and an IC50 (eIF-2-alpha kinase GCN2 [5]) of 25 nM.
For `COCCNC(=O)[C@H]1CC[C@H](Nc2ncc3c(Br)nn(-c4ccc5ncccc5c4)c3n2)C1`, the IC50 (eIF-2-alpha kinase GCN2 [2]) was 144 nM and the IC50 (eIF-2-alpha kinase GCN2 [5]) was 183 nM.
For `CNC(=O)[C@]1(C)CC[C@@H](Nc2ncc3c(Br)nn(-c4ccc(-c5nnc(C)s5)c(CCS(C)(=O)=O)c4)c3n2)C1`, the half-life [1] was 39 min, the IC50 (eIF-2-alpha kinase GCN2 [2]) was 2 nM and the AUC(0-inf) [3] was 26 ng·h/mL. For the same molecule, the bioavailability [4] was 3% and the IC50 (eIF-2-alpha kinase GCN2 [5]) was 9 nM.
For `COCCS(=O)(=O)N[C@@H]1CC[C@@H](Nc2ncc3c(Br)nn(-c4ccc5ncccc5c4)c3n2)C1` (relative stereo), the IC50 (eIF-2-alpha kinase GCN2 [2]) was 55 nM and the IC50 (eIF-2-alpha kinase GCN2 [5]) was 262 nM.
In the case of `CNC(=O)[C@]1(C)CC[C@@H](Nc2ncc3c(Br)nn(-c4ccc(-c5nnc(C)o5)cc4)c3n2)C1`, the IC50 (eIF-2-alpha kinase GCN2 [2]) is reported as 16 nM and the IC50 (eIF-2-alpha kinase GCN2 [5]) is reported as 16 nM.
For `CNC(=O)[C@]1(C)CC[C@@H](Nc2ncc3c(Br)nn(-c4ccc(-c5nnc(C)s5)c(C#N)c4)c3n2)C1`, the half-life [1] was 51 min, the IC50 (eIF-2-alpha kinase GCN2 [2]) was 8 nM and the AUC(0-inf) [3] was 1150 ng·h/mL. It also gave a bioavailability [4] of 39% and an IC50 (eIF-2-alpha kinase GCN2 [5]) of 35 nM.

— ChEMBL document CHEMBL5108048, “Potent GCN2 Inhibitor Capable of Reversing MDSC-Driven T Cell Suppression Demonstrates In Vivo Efficacy as a Single Agent and in Combination with Anti-Angiogenesis Therapy” (J Med Chem, 2022)
